In the NIST ThermoML archive (doi:10.1016/j.jct.2016.05.019):
“And” between values parts separate entries of the source, which are not always exact repeats. Equal entries are not always repeated.

Conditions: Liquid; for mass density: Bellows volumetry

CCC(C)C [2-methylbutane]
Conditions	mass density
360 K, 70000 kPa	638.43 kg/m3
360 K, 80000 kPa	645.89 kg/m3
360 K, 90000 kPa	652.93 kg/m3
360 K, 100000 kPa	659.45 kg/m3
360 K, 120000 kPa	671.11 kg/m3
360 K, 140000 kPa	681.34 kg/m3
360 K, 160000 kPa	691.16 kg/m3
360 K, 180000 kPa	699.47 kg/m3
360 K, 200000 kPa	708.18 kg/m3
368.12 K, 98070 kPa	653.72 kg/m3
368.12 K, 147100 kPa	681.34 kg/m3
368.12 K, 196130 kPa	703.04 kg/m3
380 K, 846 kPa	518.39 kg/m3
380 K, 857 kPa	518.44 kg/m3
380 K, 962 kPa	518.87 kg/m3
380 K, 1000 kPa	518.39 kg/m3
380 K, 1001 kPa	519.03 kg/m3
380 K, 2000 kPa	522.38 kg/m3
380 K, 3000 kPa	526.02 kg/m3
380 K, 5000 kPa	532.71 kg/m3
380 K, 10000 kPa	546.59 kg/m3
380 K, 20000 kPa	567.43 kg/m3
380 K, 30000 kPa	583.41 kg/m3
380 K, 40000 kPa	596.53 kg/m3
380 K, 50000 kPa	607.73 kg/m3
380 K, 60000 kPa	617.61 kg/m3
380 K, 70000 kPa	626.4 kg/m3
380 K, 80000 kPa	634.41 kg/m3
380 K, 90000 kPa	641.88 kg/m3
380 K, 100000 kPa	648.74 kg/m3
380 K, 120000 kPa	661.13 kg/m3
380 K, 140000 kPa	672.14 kg/m3
380 K, 160000 kPa	682.07 kg/m3
380 K, 180000 kPa	691.12 kg/m3
380 K, 200000 kPa	699.6 kg/m3
400 K, 1250 kPa	487.6 kg/m3
400 K, 1309 kPa	487.97 kg/m3
400 K, 1506 kPa	489.2 kg/m3
400 K, 1611 kPa	489.83 kg/m3
400 K, 2000 kPa	491.59 kg/m3 and 492.12 kg/m3
400 K, 3000 kPa	497.03 kg/m3
400 K, 5000 kPa	506.33 kg/m3
400 K, 10000 kPa	524.35 kg/m3
400 K, 20000 kPa	549.47 kg/m3
400 K, 30000 kPa	567.78 kg/m3
400 K, 40000 kPa	582.37 kg/m3
400 K, 50000 kPa	594.58 kg/m3
400 K, 60000 kPa	605.35 kg/m3
400 K, 70000 kPa	614.87 kg/m3
400 K, 80000 kPa	623.43 kg/m3
400 K, 90000 kPa	631.33 kg/m3
400 K, 100000 kPa	638.47 kg/m3
400 K, 120000 kPa	651.4 kg/m3
400 K, 140000 kPa	662.94 kg/m3
400 K, 160000 kPa	673.54 kg/m3
400 K, 180000 kPa	682.87 kg/m3
400 K, 200000 kPa	691.58 kg/m3
410 K, 1519 kPa	470.27 kg/m3
410 K, 1623 kPa	471.11 kg/m3
410 K, 2000 kPa	474.02 kg/m3
420 K, 1789 kPa	450.66 kg/m3
420 K, 1800 kPa	450.78 kg/m3
420 K, 1904 kPa	451.92 kg/m3
420 K, 2000 kPa	452.61 kg/m3 and 452.93 kg/m3
420 K, 3000 kPa	461.88 kg/m3
420 K, 5000 kPa	476.16 kg/m3
420 K, 10000 kPa	500.48 kg/m3
420 K, 20000 kPa	530.77 kg/m3
420 K, 30000 kPa	551.51 kg/m3
420 K, 40000 kPa	567.85 kg/m3
420 K, 50000 kPa	581.15 kg/m3
420 K, 60000 kPa	592.84 kg/m3
420 K, 70000 kPa	602.84 kg/m3
420 K, 80000 kPa	612.1 kg/m3
420 K, 90000 kPa	620.5 kg/m3
420 K, 100000 kPa	628.24 kg/m3
420 K, 120000 kPa	641.97 kg/m3
420 K, 140000 kPa	653.97 kg/m3
420 K, 160000 kPa	664.82 kg/m3
420 K, 180000 kPa	674.63 kg/m3
420 K, 200000 kPa	683.74 kg/m3
440 K, 3000 kPa	412.99 kg/m3
440 K, 5000 kPa	439.7 kg/m3
440 K, 10000 kPa	474.4 kg/m3
440 K, 20000 kPa	511.64 kg/m3
440 K, 30000 kPa	535.46 kg/m3
440 K, 40000 kPa	553.42 kg/m3
440 K, 50000 kPa	568.08 kg/m3
440 K, 60000 kPa	580.59 kg/m3
440 K, 70000 kPa	591.44 kg/m3
440 K, 80000 kPa	601.22 kg/m3
440 K, 90000 kPa	610.1 kg/m3
440 K, 100000 kPa	618.08 kg/m3
440 K, 120000 kPa	632.51 kg/m3
440 K, 140000 kPa	645.06 kg/m3
440 K, 160000 kPa	656.44 kg/m3
440 K, 180000 kPa	666.6 kg/m3
440 K, 200000 kPa	676.01 kg/m3

Conditions	mass density [kg/m3]	vapor or sublimation pressure [kPa]
360 K	544.8	538
380 K	518.31	835
400 K	487.34	1238
410 K	469.93	1487
420 K	450.21	1772
